Test results published in PubChem BioAssay (NCI).
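GI50 = concentration required for 50% inhibition of growth. Definition used: TGI = concentration required for complete inhibition of growth.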

Legend:
Assay in all cases: DTP human tumour cell line panel, 384-well format; in the data active = GI50 below about 0.43 µM; inactive = the rest
[1] = test system: 786-0 renal
[2] = test system: A498 renal
[3] = test system: A549 NSCLC
[4] = test system: ACHN renal
[5] = test system: BT-549 breast
[6] = test system: CAKI-1 renal
[7] = test system: CCRF-CEM leukemia
[8] = test system: COLO 205 colon
[9] = test system: DU-145 prostate
[10] = test system: EKVX NSCLC
[11] = test system: HCC-2998 colon
[12] = test system: HCT-15 colon
[13] = test system: HL-60(TB) leukemia
[14] = test system: HOP-62 NSCLC
[15] = test system: HOP-92 NSCLC
[16] = test system: HS 578T breast
[17] = test system: HT29 colon
[18] = test system: IGROV1 ovarian
[19] = test system: KM12 colon
[20] = test system: M14 melanoma
[21] = test system: MALME-3M melanoma
[22] = test system: MCF7 breast
[23] = test system: MDA-MB-231 breast
[24] = test system: MDA-MB-435 melanoma
[25] = test system: MDA-MB-468 breast
[26] = test system: MOLT-4 leukemia
[27] = test system: NCI-H226 lung
[28] = test system: NCI-H23 lung
[29] = test system: NCI-H322M lung
[30] = test system: NCI-H460 NSCLC
[31] = test system: NCI-H522 lung
[32] = test system: NCI/ADR-RES ovarian
[33] = test system: OVCAR-3 ovarian
[34] = test system: OVCAR-4 ovarian
[35] = test system: OVCAR-5 ovarian
[36] = test system: OVCAR-8 ovarian
[37] = test system: PC-3 prostate
[38] = test system: RPMI-8226 leukemia
[39] = test system: RXF 393 renal
[40] = test system: SF-268 CNS
[41] = test system: SF-295 CNS
[42] = test system: SF-539 CNS
[43] = test system: SK-MEL-2 melanoma
[44] = test system: SK-MEL-28 melanoma
[45] = test system: SK-MEL-5 melanoma
[46] = test system: SK-OV-3 ovarian
[47] = test system: SN12C renal
[48] = test system: SNB-19 CNS
[49] = test system: SNB-75 CNS
[50] = test system: SR leukemia
[51] = test system: SW-620 colon
[52] = test system: T-47D breast
[53] = test system: TK-10 renal
[54] = test system: U251 glioblastoma
[55] = test system: UACC-257 melanoma
[56] = test system: UACC-62 melanoma

NC(=O)c1ccc(I)c([N+](=O)[O-])c1
95.7 µM: TGI [29]
45.3 µM: TGI [7]
> 100 µM: TGI [1] | TGI [2] | TGI [3] | TGI [4] | TGI [5] | TGI [8] | TGI [9] | TGI [12] | TGI [16] | TGI [17] | TGI [18] | TGI [19] | TGI [20] | TGI [21] | TGI [22] | TGI [23] | TGI [24] | TGI [27] | TGI [30] | TGI [32] | TGI [36] | TGI [37] | TGI [40] | TGI [41] | TGI [42] | TGI [44] | TGI [46] | TGI [47] | TGI [48] | TGI [49] | TGI [51] | TGI [53] | TGI [54] | TGI [55] | TGI [56]
38.8 µM: TGI [26]
57.3 µM: TGI [50]
78.9 µM: TGI [38]
72.8 µM: TGI [43]
52.5 µM: TGI [28]
35.2 µM: TGI [10]
42.8 µM: TGI [15]
23.3 µM: TGI [25]
38.1 µM: TGI [52]
36.3 µM: TGI [39]
36.1 µM: TGI [6]
31.9 µM: TGI [34]
89.3 µM: TGI [45]
30.1 µM: TGI [31]
inactive: GI50 [1] > 100 µM | GI50 [2] 91.6 µM | GI50 [3] > 100 µM | GI50 [4] > 100 µM | GI50 [5] 71.1 µM | GI50 [6] 20.6 µM | GI50 [7] 21.4 µM | GI50 [8] > 100 µM | GI50 [9] > 100 µM | GI50 [10] 19.4 µM | GI50 [11] 28.2 µM | GI50 [12] 44.1 µM | GI50 [13] 18 µM | GI50 [14] 17.9 µM | GI50 [15] 21.7 µM | GI50 [16] 32.4 µM | GI50 [17] 44 µM | GI50 [18] 97.7 µM | GI50 [19] 57.4 µM | GI50 [20] 31 µM | GI50 [21] 40.6 µM | GI50 [22] > 100 µM | GI50 [23] 70.2 µM | GI50 [24] > 100 µM | GI50 [25] 10 µM | GI50 [26] 20.5 µM | GI50 [27] 53.4 µM | GI50 [28] 24.3 µM | GI50 [29] 33 µM | GI50 [30] 78.5 µM | GI50 [31] 15.4 µM | GI50 [32] > 100 µM | GI50 [33] 23.6 µM | GI50 [34] 17.9 µM | GI50 [35] 21 µM | GI50 [36] > 100 µM | GI50 [37] > 100 µM | GI50 [38] 33 µM | GI50 [39] 21.4 µM | GI50 [40] > 100 µM | GI50 [41] > 100 µM | GI50 [42] > 100 µM | GI50 [43] 26.8 µM | GI50 [44] 44.3 µM | GI50 [45] 25.2 µM | GI50 [46] 68.7 µM | GI50 [47] 62.7 µM | GI50 [48] > 100 µM | GI50 [49] 21.4 µM | GI50 [50] 25 µM | GI50 [51] > 100 µM | GI50 [52] 21 µM | GI50 [53] > 100 µM | GI50 [54] 53.1 µM | GI50 [55] 39.8 µM | GI50 [56] 39 µM
39.9 µM: TGI [35]
32.1 µM: TGI [13]
56.2 µM: TGI [11]
58.4 µM: TGI [33]
36.7 µM: TGI [14]

C[C@]1(c2nc3c(C(N)=O)cccc3[nH]2)CCCN1
28.3 µM: TGI [50]
> 100 µM: TGI [1] | TGI [2] | TGI [3] | TGI [4] | TGI [5] | TGI [6] | TGI [7] | TGI [8] | TGI [9] | TGI [10] | TGI [11] | TGI [12] | TGI [13] | TGI [14] | TGI [15] | TGI [16] | TGI [17] | TGI [18] | TGI [19] | TGI [20] | TGI [21] | TGI [22] | TGI [23] | TGI [24] | TGI [25] | TGI [26] | TGI [27] | TGI [28] | TGI [29] | TGI [30] | TGI [31] | TGI [32] | TGI [33] | TGI [34] | TGI [35] | TGI [36] | TGI [37] | TGI [38] | TGI [39] | TGI [40] | TGI [41] | TGI [42] | TGI [43] | TGI [44] | TGI [45] | TGI [46] | TGI [47] | TGI [48] | TGI [51] | TGI [52] | TGI [53] | TGI [54] | TGI [55] | TGI [56]
inactive: GI50 [1] > 100 µM | GI50 [2] > 100 µM | GI50 [3] > 100 µM | GI50 [4] > 100 µM | GI50 [5] > 100 µM | GI50 [6] > 100 µM | GI50 [7] > 100 µM | GI50 [8] > 100 µM | GI50 [9] > 100 µM | GI50 [10] > 100 µM | GI50 [11] 26.6 µM | GI50 [12] > 100 µM | GI50 [13] > 100 µM | GI50 [14] 40.7 µM | GI50 [15] > 100 µM | GI50 [16] > 100 µM | GI50 [17] > 100 µM | GI50 [18] > 100 µM | GI50 [19] > 100 µM | GI50 [20] > 100 µM | GI50 [21] > 100 µM | GI50 [22] 72.9 µM | GI50 [23] > 100 µM | GI50 [24] > 100 µM | GI50 [25] 16.2 µM | GI50 [26] 29.6 µM | GI50 [27] 90.3 µM | GI50 [28] 78.7 µM | GI50 [29] > 100 µM | GI50 [30] 28.7 µM | GI50 [31] > 100 µM | GI50 [32] > 100 µM | GI50 [33] > 100 µM | GI50 [34] > 100 µM | GI50 [35] 84.4 µM | GI50 [36] > 100 µM | GI50 [37] > 100 µM | GI50 [38] > 100 µM | GI50 [39] > 100 µM | GI50 [40] > 100 µM | GI50 [41] 38.9 µM | GI50 [42] > 100 µM | GI50 [43] > 100 µM | GI50 [44] > 100 µM | GI50 [45] > 100 µM | GI50 [46] > 100 µM | GI50 [47] 85.2 µM | GI50 [48] > 100 µM | GI50 [50] 14.5 µM | GI50 [51] > 100 µM | GI50 [52] > 100 µM | GI50 [53] > 100 µM | GI50 [54] > 100 µM | GI50 [55] > 100 µM | GI50 [56] 95.6 µM
